Where two headings read alike, the source gives them in different places.
Tests used:
AD homogenates [1] = details: read-out: binding affinity with AD homogenates; cited from earlier work
Aβ plaques = Aβ plaques (Homo sapiens, UniProt P05067); assay: Histological staining of human AD brain tissue sections; details: AD frontal lobe sections
Description: To further assess ability of the 5 to label Aβ plaques in human brain, staining experiments were also performed with postmortem tissues from clinically-characterized AD patients[35][36] As a positive control, a highly specific anti-Aβ antibody (10D5, Eli Lilly, Indianapolis, IN) was used to ascertain the presence of Aβ plaques (Fig. 4A), using well-established procedures for assessment of Aβ plaques in postmortem brain[37]. […] Noticeably, 5 also indicated proficient and distinct labeling of plaque and leptomeningeal vessels (cerebral amyloid angiopathy; CAA) (Fig. 4B). […] This high specificity of 5 for Aβ could be attributed to presence of a benzoselenazole ring within Fluselenamyl. Overall, the ability and sensitivity of 5 to detect diffuse plaques and specificity for AD could represent an important advancement to enable PET imaging of mildly demented individuals, prior to onset of symptoms.
Scientific Reports Version of August 4, 2016
µm) were cut in the coronal plane on a freezing sliding microtome and stored at -20°C. 7,8 Tissue was stained as free-floating sections. Prior to staining, tissue sections were permeabilized with PBS-Tritron-X-100 (0.25%) for 30 minutes, and then blocked with 1% non-fat dry milk in PBS-Ttiton-X-100 for 60 minutes.
Hippocampus tissue sections of APP+/-/PS1+/- and age-matched control BL/6 (WT, SI Figure 3) were incubated with fluorescent molecule 5 (100 nM dissolved in 1% ethanol in PBS) for 60 minutes, and washed 3-times with PBS-Triton-X-100.9 Thereafter, tissue sections were incubated with mouse-anti-Aβ (mHJ3.4) 7 that was directly conjugated to Alexa 568 for 90 minutes and washed 3-times with PBS-Triton-X-100.
Tissue sections were mounted onto SuperFrost Plus slides, dried overnight at room temperature, and then sealed with Fluoromount G (Southern Biotech, Birmingham, AL). […]
other neurodegenerative diseases (SI, Figure 4A & 4B). Sections were visualized, processed, and analyzed using a Pascal confocal microscope. […]

[2] = comparison values, no reference given; cited from earlier work
[3] = normal mice, cited from earlier work
AD homogenates [4] = assay: Competition of unlabeled ligands against [18F]-9 binding on AD homogenates; parameters: species or system human; details: for displacement of [18F]-9 specific binding: AD homogenates, unlabeled competitor
Description: Literature precedents indicate the presence of at least three different binding sites, characterized as BS1, BS2 and BS3 on the Aβ fibrils in vitro[24] and extracts from AD homogenates. […] Further, to evaluate ability of [^18F]-9 for labeling Aβ in autopsy confirmed human brain sections, autoradiography and immunohistochemical correlations were also performed.

Chain of Aβ plaques (P05067 672-711 limits assumed): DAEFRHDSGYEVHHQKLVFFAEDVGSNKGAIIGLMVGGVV

For CNc1ccc(/C=C/c2ccc(OCCOCCOCCF)nc2)cc1 [[^18F]-AV-45], the Kd (AD homogenates [1]) is given as 3.7 nM.
In the case of CNc1ccc(-c2nc3ccc(O)cc3s2)cc1F [[^18F]-Flutemetamol], the Kd (AD homogenates [1]) is given as 6.7 nM.
With thioflavin S [reference compound] the “staining of diffuse plaques” value (Aβ plaques) was “only weak staining of diffuse plaques”.
For CNc1ccc(/C=C/c2ccc(OCCOCCOCC[18F])nc2)cc1 [[^18F]-AV-45], the “log P” value [2] is given as 2.4, the “%ID/g (brain)” value ([3]; 2 min) is given as 7.33 ± 1.54 %ID/g and the “%ID/g (brain)” value ([3]; 2 h) is given as 1.80 ± 0.07 %ID/g. The “brain uptake ratio 2 min/2 h” value [3] was 4.07.
In the case of Nc1ccc(C=Cc2ccc(OCCOCCOCC[18F])nc2)cc1 [desmethylated], the “brain uptake of metabolites of [18F]-AV-45” value ([3]; at 2 min) is given as 4.5 % ID/g.
In the case of CNc1ccc(/C=C/c2ccc(OCCOCCOCCF)cc2)cc1 [[^18F]-Florbetaben], the “log P” value [2] is listed as 3.22, the “%ID/g (brain)” value ([3]; 2 min) is listed as 4.77 %ID/g and the “%ID/g (brain)” value ([3]; 4 h) is listed as 0.95 %ID/g. The “brain uptake ratio 2 min/4 h” value [3] was 5.02 and the Kd (AD homogenates [1]) was 16 nM.
With [11CH3]Nc1ccc(-c2nc3ccc(O)cc3s2)cc1 [PiB] the “displacement of [18F]-9 specific binding” value (AD homogenates [4]) was “significant displacement”.
For CN(C)c1ccc(-c2cn3cc(I)ccc3n2)cc1 [IMPY], the “displacement of [18F]-9 specific binding” value (AD homogenates [4]) was “significant displacement” and the Ki (AD homogenates [4]; competition against [18F]-9 on AD homogenates) was 6.3 nM.
In the case of O=C(O)c1cc(/N=N/c2ccc(-c3ccc(/N=N/c4ccc(O)c(C(=O)O)c4)cc3)cc2)ccc1O [Chrysamine G], the “displacement of [18F]-9 specific binding” value (AD homogenates [4]) is reported as “no displacement”.

Source: PMC5090206, “Fluselenamyl: A Novel Benzoselenazole Derivative for PET Detection of Amyloid Plaques (Aβ) in Alzheimer’s Disease” (Scientific Reports, 2016)
